Source: patent US20240058343A1, “TREATMENT OF URTICARIA USING JAK INHIBITORS” (Incyte Corporation, priority 2022, published 2024)

How the values were obtained:
[1] = molecular target: JAK2 (a.a. 828-1132) (Homo sapiens (Human), UniProt O60674); assay: In vitro JAK kinase assay (HTRF), JAK2, for JAK2/JAK1 ratio; type: biochemical; settings: IC50 ratio at 1 mM ATP
Method: (§1) The catalytic activity of JAK1, JAK2 or JAK3 was assayed by measuring the phosphorylation of a biotinylated peptide. The phosphorylated peptide was detected by homogenous time resolved fluorescence (HTRF). IC5os of compounds are measured for each kinase in the 40 microL reactions that contain the enzyme, ATP and 500 nM peptide in 50 mM Tris (pH 7.8) buffer with 100 mM NaCl, 5 mM DTT, and 0.1 mg/mL (0.01%) BSA. […] Reactions are carried out at room temperature for 1 hour and then stopped with 20 μL 45 mM EDTA, 300 nM SA-APC, 6 nM Eu-Py20 in assay buffer (Perkin Elmer, Boston, MA). Binding to the Europium labeled antibody takes place for 40 minutes and HTRF signal was measured on a Fusion plate reader (Perkin Elmer, Boston, MA).

[2] = molecular target: human JAK1 (a.a. 837-1142) (Homo sapiens, UniProt P23458); assay: In vitro JAK kinase assay (HTRF), JAK1; type: biochemical; settings: 1 mM ATP
Method: as §1

Sequence of JAK2 (a.a. 828-1132) (O60674 828-1132): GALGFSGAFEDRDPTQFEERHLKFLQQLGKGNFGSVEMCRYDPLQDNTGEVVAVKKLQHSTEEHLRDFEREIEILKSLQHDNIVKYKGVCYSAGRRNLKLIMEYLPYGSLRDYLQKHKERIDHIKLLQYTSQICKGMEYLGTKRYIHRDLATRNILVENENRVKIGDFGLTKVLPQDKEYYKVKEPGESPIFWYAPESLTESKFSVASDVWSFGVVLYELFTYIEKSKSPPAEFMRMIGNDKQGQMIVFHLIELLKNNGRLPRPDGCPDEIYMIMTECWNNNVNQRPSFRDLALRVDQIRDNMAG

| Structure (SMILES) | JAK2/JAK1 [1] | IC50 [2] [nM] |
| --- | --- | --- |
| C[C@H](NC(=O)c1cc(F)c(N2CC(CC#N)(n3cc(-c4ncnc5[nH]ccc45)cn3)C2)cc1F)C(F)(F)F [compound 16, 4-{3-(cyanomethyl)-3-[4-(7H-pyrrolo[2,3-d]pyrimidin-4-yl)-1H-pyrazol-1-yl]azetidin-1-yl}-2,5-difluoro-N-[(1S)-2,2,2-trifluoro-1-methylethyl)benzamide] | >10 | < 10 |
| C[C@@H](CO)NCc1cc(OC2CCN([C@H]3C[C@](CC#N)(n4cc(-c5ncnc6[nH]ccc56)cn4)C3)CC2)nc(C(F)(F)F)c1 [compound 23, {trans-3-(4-{[4-({[(1S)-2-hydroxy-1-methylethyl]amino}meth-yl)-6-(trifluoromethyl)pyridin-2-yl]oxy}piperidin-1-yl)-1-[4-(7H-pyrrolo[2,3-d]pyrimidin-4-yl)-1H-pyrazol-1-yl]cyclobutyl}acetonitrile] | >10 | < 10 |
| CC(C)(O)c1cc(O[C@H]2CC[C@@H](N3CC(CC#N)(n4cc(-c5ncnc6[nH]ccc56)cn4)C3)CC2)nc(C(F)(F)F)c1 [compound 20, {1-(cis-4-{[4-(1-hydroxy-1-methylethyl)-6-(trifluoromethyl)pyridin-2-yl]oxy}cyclohexyl)-3-[4-(7H-pyrrolo[2,3-d]pyrimidin-4-yl)-1H-pyrazol-1-yl]azetidin-3-yl}acetonitrile] | >10 | < 10 |
| N#CC[C@]1(n2cc(-c3ncnc4[nH]ccc34)cn2)C[C@H](N2CCC(Oc3cc(CCO)cc(C(F)(F)F)n3)CC2)C1 [compound 26, {trans-3-(4-{[4-(2-hydroxyethyl)-6-(trifluoromethyl)pyridin-2-yl]oxy}piperidin-1-yl)-1-[4-(7H-pyrrolo[2,3-d]pyrimidin-4-yl)-1H-pyrazol-1-yl]cyclobutyl}acetonitrile] | >10 | < 10 |
| N#CCC1(n2cc(-c3ncnc4[nH]ccc34)cn2)CN(C2CCN(C(=O)Nc3ccc(F)cc3C(F)(F)F)CC2)C1 [compound 2, 4-{3-(Cyanomethyl)-3-[4-(7H-pyrrolo[2,3-d]pyrimidin-4-yl)-1H-pyrazol-1-yl]azetidin-1-yl}-N-[4-fluoro-2-(trifluoromethyl)phenyl] piperidine-1-carboxamide] | >10 | < 10 |
| N#CCC1(n2cc(-c3ncnc4[nH]ccc34)cn2)CN(C2CCN(C(=O)c3ccnc(C(F)(F)F)n3)CC2)C1 [compound 3, [3-[4-(7H-pyrrolo[2,3-d]pyrimidin-4-yl)-1H-pyrazol-1-yl]-1-(1-{[2-(trifluoromethyl)pyrimi-din-4-yl]carbonyl}piperidin-4-yl)azetidin-3-yl]acetonitrile] | >10 | < 10 |
| N#CC[C@]1(n2cc(-c3ncnc4[nH]ccc34)cn2)C[C@H](N2CCC(Oc3cc(CN4CC(O)C4)cc(C(F)(F)F)n3)CC2)C1 [compound 11, {trans-3-(4-{[4-[(3-hydroxyazetidin-1-yl)methyl]-6-(trifluoromethyl)pyridin-2-yl]oxy}piperidin-1-yl)-1-[4-(7H-pyrrolo[2,3-d]pyrimidin-4-yl)-1H-pyrazol-1-yl]cyclobutyl}acetonitrile] | >10 | < 10 |
| C[C@H](O)CNCc1cc(OC2CCN([C@H]3C[C@](CC#N)(n4cc(-c5ncnc6[nH]ccc56)cn4)C3)CC2)nc(C(F)(F)F)c1 [compound 25, {trans-3-(4-{[4-({[(2S)-2-hydroxypropyl]amino}methyl)-6-(trifluoromethyl)pyridin-2-yl]oxy}piperidin-1-yl)-1-[4-(7H-pyrrolo[2,3-d]pyrimidin-4-yl)-1H-pyrazol-1-yl]cyclobutyl}acetonitrile] | >10 | < 10 |
| C[C@@H](O)CNCc1cc(OC2CCN([C@H]3C[C@](CC#N)(n4cc(-c5ncnc6[nH]ccc56)cn4)C3)CC2)nc(C(F)(F)F)c1 [compound 24, {trans-3-(4-{[4-({[(2R)-2-hydroxypropyl]amino}methyl)-6-(trifluoromethyl)pyridin-2-yl]oxy}piperidin-1-yl)-1-[4-(7H-pyrrolo[2,3-d]pyrimidin-4-yl)-1H-pyrazol-1-yl]cyclobutyl}acetonitrile] | >10 | < 10 |
| N#CCC(CN1CCN(C(=O)c2ccc(C#N)cc2F)CC1)n1ccc(-c2ncnc3[nH]ccc23)c1 (stereo not shown) [compound 9, 4-[(4-{3-cyano-2-[3-(7H-pyrrolo[2,3-d]pyrimidin-4-yl)-1H-pyrrol-1-yl]propyl}piperazin-1-yl)carbonyl]-3-fluorobenzonitrile] | >10 | < 10 |
| N#CCC1(n2cc(-c3ncnc4[nH]ccc34)cn2)CN([C@H]2CC[C@@H](Oc3cc(CN4CC[C@@H](O)C4)cc(C(F)(F)F)n3)CC2)C1 [compound 21, {1-(cis-4-{[4-{[(3R)-3-hydroxypyrrolidin-1-yl]methyl}-6-(trifluoromethyl)pyridin-2-yl]oxy}cyclohexyl)-3-[4-(7H-pyrrolo[2,3-d]pyrimidin-4-yl)-1H-pyrazol-1-yl]azetidin-3-yl}acetonitrile] | >10 | < 10 |
| N#CCC(C1CCN(c2nc3cccnc3o2)C1)n1cc(-c2ncnc3[nH]ccc23)cn1 (stereo not shown) [compound 7, 3-(1-[1,3]oxazolo[5,4-b]pyridin-2-ylpyrrolidin-3-yl)-3-[4-(7H-pyrrolo[2,3-d]pyrimidin-4-yl)-1H-pyrazol-1-yl]propanenitrile] | >10 | < 10 |
| N#CCC(C1CCN(c2cccc(Cl)n2)C1)n1cc(-c2ncnc3[nH]ccc23)cn1 (single isomer, unassigned) [compound 6, 3-[1-(6-chloropyridin-2-yl)pyrrolidin-3-yl]-3-[4-(7H-pyrrolo[2,3-d]pyrimidin-4-yl)-1H-pyrazol-1-yl]propanenitrile] | >10 | < 10 |
| C[C@@H](O)c1nc2cnc3ccsc3c2n1[C@H]1CC[C@H](CC#N)OC1 [compound 5, ((2R,5S)-5-{2-[(1R)-1-hydroxyethyl]-1H-imidazo[4,5-d]thieno[3,2-b]pyridin-1-yl}tetrahydro-2H-pyran-2-yl)acetonitrile] | >10 | < 100 |
| N#CC[C@]1(n2cc(-c3ncnc4[nH]ccc34)cn2)C[C@H](N2CCN(C(=O)c3ccnc(C(F)(F)F)n3)CC2)C1 [compound 10, [trans-1-[4-(7H-pyrrolo[2,3-d]pyrimidin-4-yl)-1H-pyrazol-1-yl]-3-(4-{[2-(trifluoromethyl)pyrimi-din-4-yl]carbonyl}piperazin-1-yl)cyclobutyl]acetonitrile] | >10 | < 10 |
| N#CCC1(n2cc(-c3ncnc4[nH]ccc34)cn2)CN([C@H]2CC[C@@H](Oc3cc(CCO)nc(C(F)(F)F)n3)CC2)C1 [compound 18, {1-(cis-4-{[6-(2-hydroxyethyl)-2-(trifluoromethyl)pyrimi-din-4-yl]oxy}cyclohexyl)-3-[4-(7H-pyrrolo[2,3-d]pyrimidin-4-yl)-1H-pyrazol-1-yl]azetidin-3-yl}acetonitrile] | >10 | < 10 |
| N#CC[C@]1(n2cc(-c3ncnc4[nH]ccc34)cn2)C[C@H](N2CCC(Oc3cc(CN4CCC[C@H]4CO)cc(C(F)(F)F)n3)CC2)C1 [compound 12, {trans-3-(4-{[4-{[(2S)-2-(hydroxymethyl)pyrroli-din-1-yl]methyl}-6-(trifluoromethyl)pyridin-2-yl]oxy}piperidin-1-yl)-1-[4-(7H-pyrrolo[2,3-d]pyrimidin-4-yl)-1H-pyrazol-1-yl]cyclobutyl}acetonitrile] | >10 | < 10 |
